Patent US20230355626A1, “INHIBITORS OF HUMAN IMMUNODEFICIENCY VIRUS REPLICATION” (VIIV HEALTHCARE UK (NO.5) LIMITED, priority 2020, published 2023)

Columns and labels:
recombinant NL4-3 virus = assay: HIV cell culture assay (antiviral activity, luciferase readout in infected MT-2 cells); assay type: cell-based; details: Human immunodeficiency virus 1, NL43, MT2
Procedure: HIV cell culture assay—MT-2 cells, 293T cells and the proviral DNA clone of NL4-3 virus were obtained from the NIH AIDS Research and Reference Reagent Program. MT-2 cells were propagated in RPMI 1640 media supplemented with 10% heat inactivated fetal bovine serum (FBS), 100 μg/ml penicillin G and up to 100 units/mL streptomycin. The 293T cells were propagated in DMEM media supplemented with 10% heat inactivated FBS, 100 μg/mL penicillin G and 100 μg/mL streptomycin. A recombinant NL4-3 proviral clone, in which a section of the nef gene was replaced with the Renilla luciferase gene, was used to make the reference virus used in these studies. The recombinant virus was prepared through transfection of the recombinant NL4-3 proviral clone into 293T cells using Transit-293 Transfection Reagent from Mirus Bio LLC (Madison, WI). Supernatant was harvested after 2-3 days and the amount of virus present was titered in MT-2 cells using luciferase enzyme activity as a marker by measuring luciferase enzyme activity. Luciferase was quantitated using the EnduRen Live Cell Substrate from Promega (Madison, WI). Antiviral activities of compounds toward the recombinant virus were quantified by measuring luciferase activity in MT-2 cells infected for 4-5 days with the recombinant virus in the presence of serial dilutions of the compound.
The 50% effective concentration (EC50) was calculated by using the exponential form of the median effect equation where (Fa)=1/[1+(ED50/drug conc.)m] (Johnson VA, Byington RT. Infectivity Assay. In Techniques in HIV Research. ed. Aldovini A, Walker BD. 71-76. New York: Stockton Press.1990). Curve fitting and analysis were performed with ActivityBase XE Runner software version 9.1.0.4 using model 203 (ID Business Solutions, LTD, Guildford, UK).

[1] = Compound cytotoxicity, XTT-based colorimetric assay; assay type: cell-based; details: human; uninfected MT2 cells, day 4, XTT assay
Procedure: Compound cytotoxicity and the corresponding CC50 values were determined using the same protocol as described in the antiviral assay except that uninfected cells were used. Cytotoxicity was assessed on day 4 in uninfected MT2 cells by using an XTT (2,3-bis[2-Methoxy-4-nitro-5-sulfophenyl]-2H-tetrazolium-5-carboxyanilide inner salt)-based colorimetric assay (Sigma-Aldrich, St Louis, Mo).

Cn1nc(NS(C)(=O)=O)c2c(Cl)ccc(-n3c([C@H](Cc4cc(F)cc(F)c4)NC(=O)Cn4nc(C(F)F)c5c4C(F)(F)[C@@H]4C[C@H]54)nc4nc(OCc5nccn5C(F)F)ccc4c3=O)c21 (atropisomer, axis not shown; (P)) [Example 28, N-((S)-1-((3P)-3-(4-chloro-1-methyl-3-(methylsulfonamido)-1H-indazol-7-yl)-7-((1-(difluoromethyl)-1H-imidazol-2-yl)methoxy)-4-oxo-3,4-dihydropyrido[2,3-d]pyrimidin-2-yl)-2-(3,5-difluorophenyl)ethyl)-2-((3bS,4aR)-3-(difluoromethyl)-5,5-difluoro-3b,4,4a,5-tetrahydro-1H-cyclopropa[3,4]cyclopenta[1,2-c]pyrazol-1-yl)acetamide]
EC50 (recombinant NL4-3 virus): 0.87 nM
CC50 at 4 day [1]: > 100 nM

Cn1nc(NS(C)(=O)=O)c2c(Cl)ccc(-n3c([C@H](Cc4cc(F)cc(F)c4)NC(=O)Cn4nc(C(F)F)c5c4C(F)(F)[C@@H]4C[C@H]54)nc4nc(Oc5ccc(F)cc5F)ccc4c3=O)c21 (atropisomer, axis not shown; (P)) [Example 36, N-((S)-1-((3P)-3-(4-chloro-1-methyl-3-(methylsulfonamido)-1H-indazol-7-yl)-7-(2,4-difluorophenoxy)-4-oxo-3,4-dihydropyrido[2,3-d]pyrimidin-2-yl)-2-(3,5-difluorophenyl)ethyl)-2-((3bS,4aR)-3-(difluoromethyl)-5,5-difluoro-3b,4,4a,5-tetrahydro-1H-cyclopropa[3,4]cyclopenta[1,2-c]pyrazol-1-yl)acetamide]
EC50 (recombinant NL4-3 virus): 0.081 nM
CC50 at 4 day [1]: > 100 nM

Cn1nc(NS(C)(=O)=O)c2c(Cl)ccc(-n3c([C@H](Cc4cc(F)cc(F)c4)NC(=O)Cn4nc(C(F)F)c5c4C(F)(F)[C@@H]4C[C@H]54)nc4nc(OCC(F)(F)C(F)F)ccc4c3=O)c21 (atropisomer, axis not shown; (P)) [Example 27, N-((S)-1-((3P,3P)-3-(4-chloro-1-methyl-3-(methylsulfonamido)-1H-indazol-7-yl)-4-oxo-7-(2,2,3,3-tetrafluoropropoxy)-3,4-dihydropyrido[2,3-d]pyrimidin-2-yl)-2-(3,5-difluorophenyl)ethyl)-2-((3bS,4aR)-3-(difluoromethyl)-5,5-difluoro-3b,4,4a,5-tetrahydro-1H-cyclopropa[3,4]cyclopenta[1,2-c]pyrazol-1-yl)acetamide]
EC50 (recombinant NL4-3 virus): 0.022 nM
CC50 at 4 day [1]: > 100 nM

Cc1cnc(COc2ccc3c(=O)n(-c4ccc(Cl)c5c(NS(C)(=O)=O)nn(C)c45)c([C@H](Cc4cc(F)cc(F)c4)NC(=O)Cn4nc(C(F)F)c5c4C(F)(F)[C@@H]4C[C@H]54)nc3n2)nc1 (atropisomer, axis not shown; (P)) [Example 8, N-((S)-1-((3P,3P)-3-(4-chloro-1-methyl-3-(methylsulfonamido)-1H-indazol-7-yl)-7-((5-methylpyrimidin-2-yl)methoxy)-4-oxo-3,4-dihydropyrido[2,3-d]pyrimidin-2-yl)-2-(3,5-difluorophenyl)ethyl)-2-((3bS,4aR)-3-(difluoromethyl)-5,5-difluoro-3b,4,4a,5-tetrahydro-1H-cyclopropa[3,4]cyclopenta[1,2-c]pyrazol-1-yl)acetamide]
EC50 (recombinant NL4-3 virus): 0.049 nM
CC50 at 4 day [1]: > 100 nM

Cn1nc(NS(C)(=O)=O)c2c(Cl)ccc(-n3c([C@H](Cc4cc(F)cc(F)c4)NC(=O)Cn4nc(C(F)F)c5c4C(F)(F)[C@@H]4C[C@H]54)nc4nc(OCC(F)(F)C(F)(F)F)ccc4c3=O)c21 (atropisomer, axis not shown; (P)) [Example 18, N-(1-((3P,3P)-3-(4-chloro-1-methyl-3-(methylsulfonamido)-1H-indazol-7-yl)-4-oxo-7-(2,2,3,3,3-pentafluoropropoxy)-3,4-dihydropyrido[2,3-d]pyrimidin-2-yl)-2-(3,5-difluorophenyl)ethyl)-2-((3bS,4aR)-3-(difluoromethyl)-5,5-difluoro-3b,4,4a,5-tetrahydro-1H-cyclopropa[3,4]cyclopenta[1,2-c]pyrazol-1-yl)acetamide]
EC50 (recombinant NL4-3 virus): 0.031 nM
CC50 at 4 day [1]: > 100 nM

Cn1nc(NS(C)(=O)=O)c2c(Cl)ccc(-n3c([C@H](Cc4cc(F)cc(F)c4)NC(=O)Cn4nc(C(F)F)c5c4C(F)(F)[C@@H]4C[C@H]54)nc4nc(OCC(F)(F)C(F)(F)C(F)(F)F)ccc4c3=O)c21 (atropisomer, axis not shown; (P)) [Example 39, N-((S)-1-((3P,3P)-3-(4-chloro-1-methyl-3-(methylsulfonamido)-1H-indazol-7-yl)-7-(2,2,3,3,4,4,4-heptafluorobutoxy)-4-oxo-3,4-dihydropyrido[2,3-d]pyrimidin-2-yl)-2-(3,5-difluorophenyl)ethyl)-2-((3bS,4aR)-3-(difluoromethyl)-5,5-difluoro-3b,4,4a,5-tetrahydro-1H-cyclopropa[3,4]cyclopenta[1,2-c]pyrazol-1-yl)acetamide]
EC50 (recombinant NL4-3 virus): 0.122 nM
CC50 at 4 day [1]: > 100 nM

Cn1nc(NS(C)(=O)=O)c2c(Cl)ccc(-n3c([C@H](Cc4cc(F)cc(F)c4)NC(=O)Cn4nc(C(F)F)c5c4C(F)(F)[C@@H]4C[C@H]54)nc4nc(OCCOCC(F)(F)F)ccc4c3=O)c21 (atropisomer, axis not shown; (P)) [Example 26, N-((S)-1-((3P)-3-(4-chloro-1-methyl-3-(methylsulfonamido)-1H-indazol-7-yl)-4-oxo-7-(2-(2,2,2-trifluoroethoxy)ethoxy)-3,4-dihydropyrido[2,3-d]pyrimidin-2-yl)-2-(3,5-difluorophenyl)ethyl)-2-((3bS,4aR)-3-(difluoromethyl)-5,5-difluoro-3b,4,4a,5-tetrahydro-1H-cyclopropa[3,4]cyclopenta[1,2-c]pyrazol-1-yl)acetamide]
EC50 (recombinant NL4-3 virus): 0.024 nM
CC50 at 4 day [1]: > 100 nM

CN(CCOc1ccc2c(=O)n(-c3ccc(Cl)c4c(NS(C)(=O)=O)nn(C)c34)c([C@H](Cc3cc(F)cc(F)c3)NC(=O)Cn3nc(C(F)F)c4c3C(F)(F)[C@@H]3C[C@H]43)nc2n1)CC(F)(F)F (atropisomer, axis not shown; (P)) [Example 9, N-((S)-1-((3P)-3-(4-chloro-1-methyl-3-(methylsulfonamido)-1H-indazol-7-yl)-7-(2-(methyl(2,2,2-trifluoroethyl)amino)ethoxy)-4-oxo-3,4-dihydropyrido[2,3-d]pyrimidin-2-yl)-2-(3,5-difluorophenyl)ethyl)-2-((3bS,4aR)-3-(difluoromethyl)-5,5-difluoro-3b,4,4a,5-tetrahydro-1H-cyclopropa[3,4]cyclopenta[1,2-c]pyrazol-1-yl)acetamide]
EC50 (recombinant NL4-3 virus): 0.018 nM
CC50 at 4 day [1]: > 100 nM

Cc1ccnc(COc2ccc3c(=O)n(-c4ccc(Cl)c5c(NS(C)(=O)=O)nn(C)c45)c([C@H](Cc4cc(F)cc(F)c4)NC(=O)Cn4nc(C(F)F)c5c4C(F)(F)[C@@H]4C[C@H]54)nc3n2)n1 (atropisomer, axis not shown; (P)) [Example 7, N-((S)-1-((3P,3P)-3-(4-chloro-1-methyl-3-(methylsulfonamido)-1H-indazol-7-yl)-7-((4-methylpyrimidin-2-yl)methoxy)-4-oxo-3,4-dihydropyrido[2,3-d]pyrimidin-2-yl)-2-(3,5-difluorophenyl)ethyl)-2-((3bS,4aR)-3-(difluoromethyl)-5,5-difluoro-3b,4,4a,5-tetrahydro-1H-cyclopropa[3,4]cyclopenta[1,2-c]pyrazol-1-yl)acetamide]
EC50 (recombinant NL4-3 virus): 0.059 nM
CC50 at 4 day [1]: > 500 nM
